In the NIST ThermoML archive (doi:10.1016/j.jct.2017.02.024):

Assay: mn = molality of the nth substance listed, in mol/kg
Conditions: 100 kPa, Liquid; for viscosity: Capillary tube (Ostwald / Ubbelohde) method; for mass density: Vibrating tube method

NCC(=O)O [2-aminoacetic acid] + O
Conditions	mass density, 293.15 K [kg/m3]	mass density, 303.15 K [kg/m3]	mass density, 313.15 K [kg/m3]	mass density, 323.15 K [kg/m3]	viscosity, 293.15 K [mPa·s]	viscosity, 303.15 K [mPa·s]	viscosity, 313.15 K [mPa·s]	viscosity, 323.15 K [mPa·s]
m1 = 0.1	1001.39	998.81	–	991.09	1.014	0.809	0.663	0.556
m1 = 0.2	1004.56	1001.91	–	994.12	1.027	0.82	0.673	0.565
m1 = 0.3	1007.67	1004.97	1001.42	997.11	1.041	0.832	0.683	0.574
m1 = 0.4	1010.73	1007.98	1004.4	1000.05	1.055	0.844	0.693	0.582
m1 = 0.5	1013.74	1010.94	1007.32	1002.96	1.07	0.856	0.704	0.591
m1 = 0.6	1016.72	1013.87	1010.23	1005.85	1.085	0.868	0.714	0.6
m1 = 0.7	1019.66	1016.75	1013.06	1008.69	1.101	0.881	0.724	0.61

OC[C@@H](O)[C@@H](O[C@H]1O[C@H](CO)[C@@H](O)[C@H](O)[C@H]1O)[C@H](O)[C@@H](O)CO [4-O-α-D-glucopyranosyl-D-glucitol] + O
Conditions	mass density, m1 = 0.2 [kg/m3]	mass density, m1 = 0.4 [kg/m3]	mass density, m1 = 0.6 [kg/m3]	mass density, m1 = 0.8 [kg/m3]	mass density, m1 = 1 [kg/m3]	viscosity, m1 = 0.2 [mPa·s]	viscosity, m1 = 0.4 [mPa·s]	viscosity, m1 = 0.6 [mPa·s]	viscosity, m1 = 0.8 [mPa·s]	viscosity, m1 = 1 [mPa·s]
293.15 K	1022.97	1045.59	1066.2	1085.31	1102.86	1.202	1.457	1.761	2.142	2.61
303.15 K	1020.13	1042.41	1062.88	1081.69	1099.07	0.95	1.134	1.353	1.626	1.954
313.15 K	1016.42	1038.47	1058.71	1077.36	1094.66	0.77	0.909	1.073	1.277	1.511
323.15 K	1012.07	1033.97	1054.01	1072.55	1089.71	0.641	0.747	0.874	1.027	1.204

C[C@H](N)C(=O)O [(S)-2-aminopropanoic acid] + O
Conditions	mass density, 293.15 K [kg/m3]	mass density, 303.15 K [kg/m3]	mass density, 313.15 K [kg/m3]	mass density, 323.15 K [kg/m3]	viscosity, 293.15 K [mPa·s]	viscosity, 303.15 K [mPa·s]	viscosity, 313.15 K [mPa·s]	viscosity, 323.15 K [mPa·s]
m1 = 0.1	1001.06	998.5	995.04	990.8	1.027	0.817	0.669	0.559
m1 = 0.2	1003.89	1001.29	997.81	993.55	1.053	0.837	0.684	0.571
m1 = 0.3	1006.66	1004.03	1000.5	996.24	1.079	0.857	0.7	0.584
m1 = 0.4	–	–	–	–	1.106	0.878	0.716	0.597
m1 = 0.401	1009.41	1006.73	1003.18	998.9	–	–	–	–
m1 = 0.5	1012.07	1009.37	1005.79	1001.49	1.134	0.898	0.733	0.611
m1 = 0.6	1014.71	1011.97	1008.36	1004.08	1.163	0.921	0.751	0.624
m1 = 0.7	1017.29	1014.52	1010.9	1006.6	1.193	0.943	0.768	0.638

N=C(N)NCCC[C@H](N)C(=O)O [L-arginine] + O
Conditions	mass density, 293.15 K [kg/m3]	mass density, 303.15 K [kg/m3]	mass density, 313.15 K [kg/m3]	mass density, 323.15 K [kg/m3]	viscosity, 293.15 K [mPa·s]	viscosity, 303.15 K [mPa·s]	viscosity, 313.15 K [mPa·s]	viscosity, 323.15 K [mPa·s]
m1 = 0.1	1003.16	1000.56	997.08	992.8	1.054	0.837	0.684	0.572
m1 = 0.2	1007.98	1005.3	1001.76	997.43	1.109	0.879	0.716	0.598
m1 = 0.3	1012.67	1009.89	1006.3	1001.92	1.167	0.922	0.751	0.625
m1 = 0.4	1017.19	1014.33	1010.71	1006.3	1.229	0.969	0.786	0.653
m1 = 0.5	1021.57	1018.66	1014.97	1010.54	1.296	1.019	0.825	0.682
m1 = 0.6	1025.85	1022.85	1019.13	1014.68	1.366	1.069	0.863	0.713
m1 = 0.7	1030	1026.94	1023.18	1018.67	1.435	1.121	0.903	0.743

C[C@@H](O)[C@H](N)C(=O)O [L-threonine] + O
Conditions	mass density, 293.15 K [kg/m3]	mass density, 303.15 K [kg/m3]	mass density, 313.15 K [kg/m3]	mass density, 323.15 K [kg/m3]	viscosity, 293.15 K [mPa·s]	viscosity, 303.15 K [mPa·s]	viscosity, 313.15 K [mPa·s]	viscosity, 323.15 K [mPa·s]
m1 = 0.1	1002.4	999.82	996.36	992.09	1.035	0.823	0.673	0.563
m1 = 0.2	1006.54	1003.91	1000.4	996.09	1.07	0.85	0.694	0.579
m1 = 0.3	1010.59	1007.91	1004.35	1000.01	1.105	0.878	0.717	0.596
m1 = 0.4	1014.57	1011.83	1008.22	1003.85	1.143	0.907	0.739	0.615
m1 = 0.5	1018.46	1015.67	1012.03	1007.62	1.182	0.936	0.763	0.632
m1 = 0.6	1022.28	1019.43	1015.75	1011.32	1.221	0.967	0.787	0.651
m1 = 0.7	1026.03	1023.14	1019.41	1014.96	1.263	0.999	0.811	0.67

CC(C)[C@H](N)C(=O)O [L-valine] + O
Conditions	mass density, 293.15 K [kg/m3]	mass density, 303.15 K [kg/m3]	mass density, 313.15 K [kg/m3]	mass density, 323.15 K [kg/m3]	viscosity, 293.15 K [mPa·s]	viscosity, 303.15 K [mPa·s]	viscosity, 313.15 K [mPa·s]	viscosity, 323.15 K [mPa·s]
m1 = 0.1	1000.87	998.32	994.85	990.59	1.044	0.83	0.678	0.567
m1 = 0.2	1003.5	1000.9	997.4	993.09	1.088	0.864	0.704	0.587
m1 = 0.3	1006.05	1003.43	999.89	995.54	1.134	0.899	0.731	0.608
m1 = 0.4	1008.55	1005.9	1002.34	997.95	1.183	0.936	0.76	0.63

O [water] + CC(C)[C@H](N)C(=O)O
m2 = 0
Conditions	mass density [kg/m3]	viscosity [mPa·s]
293.15 K	–	1.002
303.15 K	–	0.798
313.15 K	–	0.654
323.15 K	988.02	0.547

O [water] + C[C@@H](O)[C@H](N)C(=O)O
m2 = 0
Conditions	mass density [kg/m3]	viscosity [mPa·s]
293.15 K	–	1.002
303.15 K	–	0.798
313.15 K	–	0.654
323.15 K	988.02	0.547

O [water] + C[C@H](N)C(=O)O
m2 = 0
Conditions	mass density [kg/m3]	viscosity [mPa·s]
293.15 K	–	1.002
303.15 K	–	0.798
313.15 K	–	0.654
323.15 K	988.02	0.547

O [water] + N=C(N)NCCC[C@H](N)C(=O)O
m2 = 0
Conditions	mass density [kg/m3]	viscosity [mPa·s]
293.15 K	–	1.002
303.15 K	–	0.798
313.15 K	–	0.654
323.15 K	988.02	0.547

O [water] + NCC(=O)O
m2 = 0
Conditions	mass density [kg/m3]	viscosity [mPa·s]
293.15 K	–	1.002
303.15 K	–	0.798
313.15 K	–	0.654
323.15 K	988.02	0.547

O [water] + OC[C@@H](O)[C@@H](O[C@H]1O[C@H](CO)[C@@H](O)[C@H](O)[C@H]1O)[C@H](O)[C@@H](O)CO
m2 = 0
Conditions	mass density [kg/m3]	viscosity [mPa·s]
293.15 K	–	1.002
303.15 K	–	0.798
313.15 K	–	0.654
323.15 K	988.02	0.547
